Results from article PMC11255338, “A deterministic, c-di-GMP-dependent program ensures the generation of phenotypically similar, symmetric daughter cells during cytokinesis” (Nature Communications, 2024).
One block for each compound: values may come before it.

Key:
MalE-DmxA^WT [1] = target: T1, MalE-DmxA^WT (Myxococcus xanthus, UniProt Q1D632, E614A); experiment: bio-layer interferometry, biotinylated c-di-GMP immobilised on streptavidin sensor; assay type: binding; conditions: labelled compound (biotinylated c-di-GMP, immobilised); 10 µM protein; active-site mutant
T1 construct: gene MXAN_3705; residues 223-722 (two GAF domains + GGDEF; N-terminal transmembrane domain removed), N-terminal MalE (MBP) tag kept, pMAL-c6t, E. coli Rosetta DE3; dimer by SEC
T1 sequence (Q1D632 entry or part of it E614A): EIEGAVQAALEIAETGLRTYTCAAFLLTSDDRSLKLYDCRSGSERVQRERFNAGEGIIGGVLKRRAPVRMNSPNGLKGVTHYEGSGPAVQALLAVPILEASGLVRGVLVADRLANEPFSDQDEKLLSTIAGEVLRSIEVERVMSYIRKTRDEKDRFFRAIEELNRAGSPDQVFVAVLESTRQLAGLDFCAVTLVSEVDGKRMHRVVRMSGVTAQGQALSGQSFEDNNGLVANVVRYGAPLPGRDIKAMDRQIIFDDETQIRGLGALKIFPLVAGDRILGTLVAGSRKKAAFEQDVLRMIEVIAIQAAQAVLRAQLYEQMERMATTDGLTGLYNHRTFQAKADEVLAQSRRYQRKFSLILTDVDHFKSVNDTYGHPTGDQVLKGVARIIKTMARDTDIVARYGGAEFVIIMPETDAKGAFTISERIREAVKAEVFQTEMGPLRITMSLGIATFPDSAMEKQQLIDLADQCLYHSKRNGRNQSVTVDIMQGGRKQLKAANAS

MalE-DmxA^WT [2] = target: T2, MalE-DmxA^WT (Myxococcus xanthus, UniProt Q1D632); experiment: diguanylate cyclase assay, pyrophosphate release (EnzChek), variable-slope inhibition fit; assay type: biochemical
T2 construct: gene MXAN_3705; residues 223-722 (two GAF domains + GGDEF; N-terminal transmembrane domain removed), N-terminal MalE (MBP) tag kept, pMAL-c6t, E. coli Rosetta DE3; dimer by SEC
T2 sequence (Q1D632 211-710): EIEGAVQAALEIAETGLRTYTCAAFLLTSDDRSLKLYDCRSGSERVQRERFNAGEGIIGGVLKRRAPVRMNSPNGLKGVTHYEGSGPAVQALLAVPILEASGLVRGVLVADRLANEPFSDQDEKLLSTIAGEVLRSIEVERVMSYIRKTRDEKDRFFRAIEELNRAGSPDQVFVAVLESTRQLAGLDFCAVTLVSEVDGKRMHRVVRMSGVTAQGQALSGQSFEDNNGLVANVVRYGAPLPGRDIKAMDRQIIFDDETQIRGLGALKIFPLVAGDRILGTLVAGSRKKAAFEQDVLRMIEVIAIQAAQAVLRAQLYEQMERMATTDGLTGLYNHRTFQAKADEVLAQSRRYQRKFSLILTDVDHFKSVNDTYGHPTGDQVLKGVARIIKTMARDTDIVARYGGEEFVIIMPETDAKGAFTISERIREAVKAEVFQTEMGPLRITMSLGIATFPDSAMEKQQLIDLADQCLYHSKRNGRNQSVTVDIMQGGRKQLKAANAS

[3] = target: MalE-DmxA^GAF×2 (DmxA residues 223-547: only the two GAF domains) (Myxococcus xanthus DK1622); experiment: SEC; HiLoad 16/600 Superdex 200 pg; SEC buffer 50 mM Tris-HCl pH 7.2, 250 mM NaCl, 10 mM MgCl2, 5 mM DTT, 5% glycerol; column calibrated with Ribonuclease A, Carbonic Anhydrase, Conalbumin and Ferritin; oligomeric state estimated from the elution volume
[4] = target: MalE-DmxA^R615A (DmxA residues 223-722 with the I-site substitution R615A) (Myxococcus xanthus DK1622); experiment: as above
MalE-DmxA^WT [5] = target: T2, MalE-DmxA^WT; experiment: diguanylate cyclase assay, pyrophosphate release (EnzChek); assay type: biochemical; conditions: 1 µM protein, 50 µM GTP
MalE-DmxA^WT [6] = target: T3, MalE-DmxA^WT (Myxococcus xanthus, UniProt Q1D632); experiment: as above; assay type: biochemical; conditions: 1 µM protein, 50 µM GTP; I-site mutant
T3 construct: gene MXAN_3705; residues 223-722 (two GAF domains + GGDEF; N-terminal transmembrane domain removed), N-terminal MalE (MBP) tag kept, pMAL-c6t, E. coli Rosetta DE3; dimer by SEC
T3 sequence (Q1D632 entry or part of it R603A): as the sequence (Q1D632 entry or part of it E614A) above, with R393A, A404E counted along it

[7] = target: MalE-DmxA^WT (DmxA residues 223-722: two GAF domains and the GGDEF domain) (Myxococcus xanthus DK1622); experiment: SEC; HiLoad 16/600 Superdex 200 pg; SEC buffer 50 mM Tris-HCl pH 7.2, 250 mM NaCl, 10 mM MgCl2, 5 mM DTT, 5% glycerol; column calibrated with Ribonuclease A, Carbonic Anhydrase, Conalbumin and Ferritin; oligomeric state estimated from the elution volume
[8] = target: MalE-DmxA^E626A (DmxA residues 223-722 with the catalytic-site substitution E626A) (Myxococcus xanthus DK1622); experiment: as above

Ki (MalE-DmxA^WT [2]): ~15 µM
Compound: Nc1nc2c(ncn2[C@@H]2O[C@@H]3COP(=O)(O)O[C@H]4[C@@H](O)[C@H](n5cnc6c(=O)[nH]c(N)nc65)O[C@@H]4COP(=O)(O)O[C@H]3[C@H]2O)c(=O)[nH]1 [c-di-GMP]
bio-layer interferometry, biotinylated c-di-GMP immobilised on streptavidin sens (MalE-DmxA^WT [1]): MalE-DmxA^WT and MalE-DmxA^E626A bound c-di-GMP

stoichiometry N [4]: 2
Compound: MalE-DmxA^R615A (DmxA residues 223-722 with the I-site substitution R615A) (domain or fragment)

stoichiometry N [7]: 2
Compound: MalE-DmxA^WT (DmxA residues 223-722: two GAF domains and the GGDEF domain) (domain or fragment)

More lines, now with the values behind:

Compound: MalE-DmxA^GAF×2 (DmxA residues 223-547: only the two GAF domains) (domain or fragment)
stoichiometry N [3]: 2

Compound: Nc1nc2c(ncn2[C@@H]2O[C@H](COP(=O)(O)OP(=O)(O)OP(=O)(O)O)[C@@H](O)[C@H]2O)c(=O)[nH]1 [GTP]
diguanylate cyclase assay, pyrophosphate release (EnzChek) (MalE-DmxA^WT [5]): MalE-DmxA^WT and MalE-DmxA^R615A had DGC activity | diguanylate cyclase assay, pyrophosphate release (EnzChek) (MalE-DmxA^WT [6]): MalE-DmxA^WT and MalE-DmxA^R615A had DGC activity

Compound: MalE-DmxA^E626A (DmxA residues 223-722 with the catalytic-site substitution E626A) (domain or fragment)
stoichiometry N [8]: 2
